Where two headings read alike, the source gives them in different places.
Columns and labels:
MCR-4 = molecular target: T1, MCR-4 (Homo sapiens, UniProt P32245); test: Melanocortin receptor binding assay, competition with 125I-HP 467, HEK 293 cells expressing hMCR-4; details: inhibition of binding of 125I-HP 467, HEK 293 cells expressing MCR-4; for IC50: read-out: MC-4 IC50
T1 construct: expressed in transfected cells; host or cells: HEK 293
How it was run: (§1)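 Intact-cell competition binding, 2.5 hr at 37 °C, in PBS/10% calf serum/1 mM CaCl2; hMCR-4 cells at 4×10^3 per tube, hMCR-1 cells at 2×10^4 per tube. Filtration on BSA/CaCl2-soaked GF/B, cold 50 mM Tris pH 7.4 washes, scintillation count.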

MCR-1 = molecular target: T2, MCR-1 (Homo sapiens, UniProt Q01726); test: Melanocortin receptor binding assay, competition with 125I-HP 467, HEK 293 cells expressing hMCR-1; details: for IC50 / MC-1 IC50: inhibition of binding of 125I-HP 467, HEK 293 cells expressing MCR-1; for IC50: read-out: MC-1 IC50; for % Disp. MC-1 10 μM: displacement of 125I-HP 467 at 10 μM isoquinoline compound
T2 construct: expressed in transfected cells; host or cells: HEK 293
T2 sequence (Q01726 whole entry): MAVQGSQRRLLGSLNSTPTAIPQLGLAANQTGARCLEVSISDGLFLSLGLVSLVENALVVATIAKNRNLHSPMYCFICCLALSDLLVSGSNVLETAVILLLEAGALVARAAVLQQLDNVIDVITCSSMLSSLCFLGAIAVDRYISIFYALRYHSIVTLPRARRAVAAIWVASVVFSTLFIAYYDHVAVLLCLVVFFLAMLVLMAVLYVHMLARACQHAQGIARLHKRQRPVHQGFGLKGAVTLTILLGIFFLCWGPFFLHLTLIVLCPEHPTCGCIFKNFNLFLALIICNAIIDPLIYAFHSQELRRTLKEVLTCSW
How it was run: as §1

T1 sequence (P32245 whole entry): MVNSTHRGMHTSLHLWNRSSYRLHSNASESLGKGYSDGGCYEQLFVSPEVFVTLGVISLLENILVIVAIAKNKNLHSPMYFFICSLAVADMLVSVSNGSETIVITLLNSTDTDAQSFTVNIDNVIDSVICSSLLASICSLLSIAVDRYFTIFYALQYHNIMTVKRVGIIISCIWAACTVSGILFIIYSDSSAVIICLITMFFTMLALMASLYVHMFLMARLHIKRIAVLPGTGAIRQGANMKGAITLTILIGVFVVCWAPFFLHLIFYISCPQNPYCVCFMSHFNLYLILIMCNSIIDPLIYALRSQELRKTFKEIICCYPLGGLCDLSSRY

CC(C)Cc1ccc(C(C)CNC(CN)CCCCN2Cc3ccccc3C(CNCc3ccccc3)C2c2ccccc2Br)cc1 (centres unmarked) [Cmpd 232]
IC50 (MCR-4; TRG 2414 library): 23.4 µM
IC50 (MCR-1; TRG 2414 library): 32.7 µM

NCC(N)CCCCN1Cc2ccccc2C(CNC2CCCCCC2)C1c1ccccc1Br (centres unmarked) [Cmpd 233]
IC50 (MCR-4; TRG 2414 library): 3.27 µM
IC50 (MCR-1; TRG 2414 library): 3.32 µM

NCC(CCCCN1Cc2ccccc2C(CNC2CCCCCC2)C1c1ccccc1Br)NCCc1ccccc1 (centres unmarked) [Cmpd 234]
IC50 (MCR-4; TRG 2414 library): 5.28 µM
IC50 (MCR-1; TRG 2414 library): 4.41 µM

NCC(CCCCN1Cc2ccccc2C(CNC2CCCCCC2)C1c1ccccc1Br)NCc1ccccc1 (centres unmarked) [Cmpd 235]
IC50 (MCR-4; TRG 2414 library): 5.35 µM
IC50 (MCR-1; TRG 2414 library): 2.86 µM

CC(C)Cc1ccc(C(C)CNC(CN)CCCCN2Cc3ccccc3C(CNC3CCCCCC3)C2c2ccccc2Br)cc1 (centres unmarked) [Cmpd 236]
IC50 (MCR-4; TRG 2414 library): 18 µM
IC50 (MCR-1; TRG 2414 library): 14 µM

NCC(N)CCCCN1Cc2ccccc2C(CNC2CCCCC2)C1c1ccccc1Br (centres unmarked) [Cmpd 237]
IC50 (MCR-4; TRG 2414 library): 3.61 µM
IC50 (MCR-1; TRG 2414 library): 5.87 µM

NCC(CCCCN1Cc2ccccc2C(CNC2CCCCC2)C1c1ccccc1Br)NCCc1ccccc1 (centres unmarked) [Cmpd 238]
IC50 (MCR-4; TRG 2414 library): 5.22 µM
IC50 (MCR-1; TRG 2414 library): 2.78 µM

NCC(CCCCN1Cc2ccccc2C(CNC2CCCCC2)C1c1ccccc1Br)NCc1ccccc1 (centres unmarked) [Cmpd 239]
IC50 (MCR-4; TRG 2414 library): 6.27 µM
IC50 (MCR-1; TRG 2414 library): 3.3 µM

CC(C)Cc1ccc(C(C)CNC(CN)CCCCN2Cc3ccccc3C(CNC3CCCCC3)C2c2ccccc2Br)cc1 (centres unmarked) [Cmpd 240]
IC50 (MCR-4; TRG 2414 library): 9.9 µM
IC50 (MCR-1; TRG 2414 library): 8.98 µM

COc1ccccc1CCNCC1c2ccccc2CN(CCCCC(N)CN)C1c1ccc(Cl)cc1Cl (centres unmarked) [Cmpd 241]
MC-4 IC50 (MCR-4; TRG 2414 library): no fit
MC-1 IC50 (MCR-1; TRG 2414 library): no fit

NCC(N)CCCCN1Cc2ccccc2C(CNCCc2cccc(Cl)c2)C1c1ccc(Cl)cc1Cl (centres unmarked) [Cmpd 244]
MC-4 IC50 (MCR-4; TRG 2414 library): no fit
IC50 (MCR-1; TRG 2414 library): 44.1 µM

COc1ccc(CNCC2c3ccccc3CN(CCCCC(N)CN)C2c2ccc(Cl)cc2Cl)cc1 (centres unmarked) [Cmpd 247]
MC-4 IC50 (MCR-4; TRG 2414 library): no fit
MC-1 IC50 (MCR-1; TRG 2414 library): no fit

COc1ccc(CCNCC2c3ccccc3CN(CCCCC(N)CN)C2c2cc(C(F)(F)F)cc(C(F)(F)F)c2)cc1 (centres unmarked) [Cmpd 262]
MC-4 IC50 (MCR-4; TRG 2414 library): no fit
MC-1 IC50 (MCR-1; TRG 2414 library): no fit

COc1ccccc1CCNCC1c2ccccc2CN(CCCCC(N)CN)C1c1ccc(Oc2ccccc2)cc1 (centres unmarked) [Cmpd 265]
MC-4 IC50 (MCR-4; TRG 2414 library): no fit
MC-1 IC50 (MCR-1; TRG 2414 library): no fit

NCC(N)CCCCN1Cc2ccccc2C(CNCCc2cccc(Cl)c2)C1c1ccc(Oc2ccccc2)cc1 (centres unmarked) [Cmpd 268]
MC-4 IC50 (MCR-4; TRG 2414 library): no fit
MC-1 IC50 (MCR-1; TRG 2414 library): no fit

COc1ccc(CNCC2c3ccccc3CN(CCCCC(N)CN)C2c2ccc(Oc3ccccc3)cc2)cc1 (centres unmarked) [Cmpd 271]
MC-4 IC50 (MCR-4; TRG 2414 library): no fit
MC-1 IC50 (MCR-1; TRG 2414 library): no fit

COc1ccc(CCNCC2c3ccccc3CN(CCCCC(N)CN)C2c2ccc(Oc3ccccc3)cc2)cc1 (centres unmarked) [Cmpd 274]
MC-4 IC50 (MCR-4; TRG 2414 library): no fit
MC-1 IC50 (MCR-1; TRG 2414 library): no fit

CCCOc1ccc(C2C(CNCCc3ccccc3OC)c3ccccc3CN2CCCCC(N)CN)cc1 (centres unmarked) [Cmpd 277]
MC-4 IC50 (MCR-4; TRG 2414 library): no fit
MC-1 IC50 (MCR-1; TRG 2414 library): no fit

CCCOc1ccc(C2C(CNCCc3cccc(Cl)c3)c3ccccc3CN2CCCCC(N)CN)cc1 (centres unmarked) [Cmpd 280]
MC-4 IC50 (MCR-4; TRG 2414 library): no fit
MC-1 IC50 (MCR-1; TRG 2414 library): no fit

CCCOc1ccc(C2C(CNCc3ccc(OC)cc3)c3ccccc3CN2CCCCC(N)CN)cc1 (centres unmarked) [Cmpd 283]
MC-4 IC50 (MCR-4; TRG 2414 library): no fit
MC-1 IC50 (MCR-1; TRG 2414 library): no fit

Cn1cccc1C1C(CNC2CCCCC2)c2ccccc2CN1CCN (centres unmarked) [TRG 2405-4]
IC50 (MCR-4; TRG 2405 section): 11.6 µM
IC50 (MCR-1; TRG 2405 section): 2.17 µM
% Disp. MC-1 10 μM (MCR-1; first of duplicate): 76.8%
% Disp. MC-1 10 μM (MCR-1; second of duplicate): 77.7%

NCCN1Cc2ccccc2C(CNC2CCCCC2)C1c1cc(C(F)(F)F)cc(C(F)(F)F)c1 (centres unmarked) [TRG 2405-28]
IC50 (MCR-4; TRG 2405 section): 9.24 µM
IC50 (MCR-1; TRG 2405 section): 8.75 µM
% Disp. MC-1 10 μM (MCR-1; first of duplicate): 52%
% Disp. MC-1 10 μM (MCR-1; second of duplicate): 52.5%

Cc1cccc(C2C(CNC3CCCCC3)c3ccccc3CN2CCN)c1 (centres unmarked) [TRG 2405-47]
IC50 (MCR-4; TRG 2405 section): 18.9 µM
IC50 (MCR-1; TRG 2405 section): 14.3 µM
% Disp. MC-1 10 μM (MCR-1; first of duplicate): 42.3%
% Disp. MC-1 10 μM (MCR-1; second of duplicate): 45.8%

NCCN1Cc2ccccc2C(CNC2CCCCC2)C1c1ccc([N+](=O)[O-])o1 (centres unmarked) [TRG 2405-80]
IC50 (MCR-4; TRG 2405 section): 20.8 µM
IC50 (MCR-1; TRG 2405 section): 8.66 µM
% Disp. MC-1 10 μM (MCR-1; first of duplicate): 30.8%
% Disp. MC-1 10 μM (MCR-1; second of duplicate): 52.9%

NCCN1Cc2ccccc2C(CNC2CCCCC2)C1c1ccc[nH]1 (centres unmarked) [TRG 2405-85]
IC50 (MCR-4; TRG 2405 section): 33.5 µM
IC50 (MCR-1; TRG 2405 section): 5.98 µM
% Disp. MC-1 10 μM (MCR-1; first of duplicate): 57.1%
% Disp. MC-1 10 μM (MCR-1; second of duplicate): 59.8%

CNC(CN)CN1Cc2ccccc2C(CNC2CCCCC2)C1c1ccc(Cl)cc1Cl (centres unmarked) [TRG 2405-100]
IC50 (MCR-4; TRG 2405 section): 11.2 µM
IC50 (MCR-1; TRG 2405 section): 12.2 µM
% Disp. MC-1 10 μM (MCR-1; first of duplicate): 54.2%
% Disp. MC-1 10 μM (MCR-1; second of duplicate): 59.6%

CNC(CN)CN1Cc2ccccc2C(CNC2CCCCC2)C1c1ccccn1 (centres unmarked) [TRG 2405-111]
IC50 (MCR-4; TRG 2405 section): 17.1 µM
IC50 (MCR-1; TRG 2405 section): 7.48 µM
% Disp. MC-1 10 μM (MCR-1; first of duplicate): 57.2%
% Disp. MC-1 10 μM (MCR-1; second of duplicate): 51%

Source: patent publication US6608082B1, “Treatment of erectile dysfunction using isoquinoline compound melanocortin receptor ligands” (Lion Bioscience AG, priority 1998, dated 2003)
